The subject of assay [1] is endogenous AMPARs. Nature of the assay: all-optical cultured-neuron assay of AMPAR-dependent synaptic transmission. The format is cell-based, rat. The following applies: DW=Rx50/HTL50. On the procedure:
Cultured neuronal assays: Preparation of hippocampal cultures: Mixed glial and neuronal cultures were prepared from the hippocampus of postnatal day 0 to 1 Sprague-Dawley rat pups. Separate pools of dissociated cells were transfected via electroporation (LONZA, V4SP-3096) with plasmid constructs, and depending on assay directives, either plated individually or mixed with a different pool of electroporated cells after a 10 min recovery period. Cells were cultured on coverslips (Deckglaser) pre-treated with high molecular weight poly-D-lysine (Sigma, P7405; 0.05 mg/mL) in 24-well plates and maintained in NbActiv4 (BrainBits, Nb4-500) at 37 C, 5% CO2. Media was changed by half at DIV3 or 4 and then weekly thereafter; experiments were performed between DIV16 to DIV18.

For assay [2], the system named is GABAAR. Nature of the assay: VTA slice, evoked GABAAR IPSCs on midbrain dopamine neurons. The format is cell-based, mouse. The conditions noted are these: 300 nM (FIG. 4E). An excerpt:
FIG. 4A-4F show the DART.2 platform can enable safe use of epileptogenic pharmaceuticals in awake behaving animals. (FIG. 4A) Validation of gabazine.1^DART.2 in cerebellar slice. Top: voltage-clamp schematic. Bottom: tonic GABAAR in granule cells expressing ^+HTP or ^ddHTP. […] Data are mean±SEM, cells normalized to baseline. (FIG. 4B) In vivo delivery of gabazine.1^DART.2 to cerebellar granule cells. Top right: schematic of experimental approach, GCaMP6f granule-cell activity obtained in the absence of sensory stimuli. Top left: example field of view, GCaMP6f signal averaged across trials. Bottom: example calcium traces (ΔF/F) in an awake ^+HTP mouse before (baseline) and after (1 μL of 1 μM gabazine.1^DART.2) infusion. (FIG. 4C) In vivo, 1 μL of 1 μM gabazine.1^DART.2 to ^+HTP mice. Color indicates ΔF/F, each row is one cell before (left) and after (right) gabazine.1^DART.2 infusion. Full dataset from 6 mice (n=1707 cells, p<0.0001, paired t-test, before vs after infusion). (FIG. 4D) In vivo, 1 μL of 1 μM gabazine.1^DART.2 to ^ddHTP mice. Format as in panel C. Full dataset from 4 mice (n=1084 cells, p=0.76, paired t-test, before vs after infusion). (FIG. 4E) Validation of gabazine.7^DART.2 in VTA slice. Top: evoked-IPSC configuration. […] Data are mean±SEM, cells normalized to baseline. Control experiments confirmed the GABAAR specificity of the manipulation. […] Data are mean±SEM, normalized to baseline speed of each animal.
Electrophysiology. Preparation of Brain slices: Mice (8-10 weeks) were injected AAV10 HaloTag™-dTomato to striatum or ventral tegmental area (VTA). After 3-5 weeks, mice were deeply anesthetized with isoflurane and euthanized by decapitation. Coronal brain slices ([…]) containing striatum or VTA were prepared by standard methods using a Vibratome (Leica, VT 1200S), in ice-cold high sucrose cutting solution containing (in mM) 220 sucrose, 3 KCl, 1.25 NaH2PO4, 25 NaHCO3, 12 MgSO4.7H2O, 10 glucose, and 0.2 CaCl2) bubbled with 95% O2 and 5% CO2. The slices were placed into modified artificial cerebrospinal fluid (aCSF) containing (in mM): 120 NaCl, 3.3 KCl, 1.23 NaH2PO4, 1 MgSO4, 2 CaCl2), 25 NaHCO3, and 10 glucose at pH 7.3, previously saturated with 95% O2 and 5% CO2. For recovery, the slices were incubated at 33° C. for 40-60 min in the bubbled ACSF solution and then allowed to cool to room temperature (22-24° C.) until the recordings were initiated.
Whole-cell patch-clamp recording: The brain slices or retinas were perfused with bubbled aCSF at 29-30° C. with a 2 ml/min flow rate. Recordings were made by whole cell patch recording techniques using a Multiclamp 700B amplifier (Molecular Devices, Axon Instruments Inc., Union City, CA). The signals were filtered at 10 KHz and acquired using Digitate 1440A and pClamp 10.7 (Molecular Devices). […]

Consider `COc1cc(CCCCl)ccc1CCOCCNC(=O)c1ccc(CNC(=O)CCOCCOCCOCCOCCOCCOCCOCCOCCOCCOCCOCCOCCOCCOCCOCCOCCOCCOCCOCCOCCOCCOCCOCCOCCOCCOCCOCCOCCOCCOCCOCCOCCOCCOCCOCCOCCn2cc(COCCOCCOCCOCCOCCOCCNC(=O)CCCn3c(=O)c(=O)[nH]c4cc([N+](=O)[O-])c(-n5ccnc5)cc43)nn2)cc1` [YM90K.1DART.2], for which the “widening of Dosing Window vs DART.1 reagent” value in assay [1] is on record as 10 fold. Further, the “DW (t=15 m)” value in assay [1] (ddHTP vs +HTP cells, 15 min) stood at 300.
As to `COc1cc(CCCCl)ccc1CCOCCNC(=O)c1ccc(CNC(=O)CCOCCOCCOCCOCCOCCOCCOCCOCCOCCOCCOCCOCCOCCOCCOCCOCCOCCOCCOCCOCCOCCOCCOCCOCCOCCOCCOCCOCCOCCOCCOCCOCCOCCOCCOCCOCCn2cc(COCCOCCOCCOCCOCCOCCOCCCCCCOc3ccc(-c4nn(CCCCC(=O)O)c(=N)cc4C)cc3)nn2)cc1` [gabazine.7DART.2], in assay [2], the “evoked GABAAR current (IPSCs), +HTP neurons” value is “pronounced block of evoked GABAAR current” and the “evoked GABAAR current (IPSCs), ddHTP cells” value was “no measurable effect on ddHTP cells”. For the same compound, in assay [2] (listed as gabazine.7^DART.2), the “evoked GABAAR current (IPSCs), +HTP neurons” value is recorded as “nearly complete block of evoked IPSCs” and the “evoked GABAAR current (IPSCs), ddHTP cells” value is listed as “no impact on ^ddHTP cells”.

The values above are taken from patent publication US20250213700A1, “COMPOUNDS, COMPOSITIONS, AND METHODS FOR CELL-SPECIFIC PHARMACOLOGY” (Duke University, priority 2022, published 2025).
